Measured values from patent US20250213532A1, “5-METHOXY-N,N-[…][…] THE TREATMENT OF BIPOLAR DISORDER” (GH RESEARCH IRELAND LIMITED, priority 2022, published 2025).

Legend:
[1] = tested on: Escherichia coli WP2 uvrA pKM101; assay: Bacterial mutation test, Escherichia coli; assay type: cell-based; settings: up to 5000 pg/plate; absence and presence of rat liver S-9
From the text: These conditions included treatments at concentrations up to […] (the maximum recommended concentration according to current regulatory guidelines), in the absence and in the presence of a rat liver metabolic activation system (S-9).

[2] = tested on: patients with clinically diagnosed postpartum depression (PPD); assay: Clinical trial of inhaled 5-MeO-DMT in postpartum depression: BPRS; assay type: in vivo, human; settings: one PPD patient; for BPRS Blunted affect improvement / BPRS Blunted affect score / BPRS Conceptual disorganization improvement / BPRS Conceptual disorganization score / BPRS Disorientation improvement / BPRS Disorientation score / BPRS Grandiosity improvement / BPRS Grandiosity score / BPRS Hallucinatory behaviour improvement / BPRS Hallucinatory behaviour score / BPRS Hostility improvement / BPRS Hostility score / BPRS Mannerisms and Posturing improvement / BPRS Mannerisms and Posturing score / BPRS Motor retardation improvement / BPRS Motor retardation score / BPRS Suspiciousness improvement / BPRS Suspiciousness score / BPRS Uncooperativeness improvement / BPRS Uncooperativeness score / BPRS Unusual Thought Content improvement / BPRS Unusual Thought Content score: baseline 1; for BPRS Excitement improvement / BPRS Excitement score: baseline 2; for BPRS Emotional withdrawal improvement / BPRS Emotional withdrawal score: baseline 5; for BPRS Anxiety improvement / BPRS Anxiety score: baseline 7
From the text: The patient completed all planned visit days.

Compound: COc1ccc2[nH]cc(CCN(C)C)c2c1 [5-MeO-DMT]
- Induction of mutation [1]: did not induce mutation
- BPRS Blunted affect improvement ([2]; Day 1): 0
- BPRS Blunted affect score ([2]; Day 1): 1
- BPRS Conceptual disorganization improvement ([2]; Day 1): 0
- BPRS Conceptual disorganization score ([2]; Day 1): 1
- BPRS Disorientation improvement ([2]; Day 1): 0
- BPRS Disorientation score ([2]; Day 1): 1
- BPRS Grandiosity improvement ([2]; Day 1): 0
- BPRS Grandiosity score ([2]; Day 1): 1
- BPRS Hallucinatory behaviour improvement ([2]; Day 1): 0
- BPRS Hallucinatory behaviour score ([2]; Day 1): 1
- BPRS Hostility improvement ([2]; Day 1): 0
- BPRS Hostility score ([2]; Day 1): 1
- BPRS Mannerisms and Posturing improvement ([2]; Day 1): 0
- BPRS Mannerisms and Posturing score ([2]; Day 1): 1
- BPRS Motor retardation improvement ([2]; Day 1): 0
- BPRS Motor retardation score ([2]; Day 1): 1
- BPRS Suspiciousness improvement ([2]; Day 1): 0
- BPRS Suspiciousness score ([2]; Day 1): 1
- BPRS Uncooperativeness improvement ([2]; Day 1): 0
- BPRS Uncooperativeness score ([2]; Day 1): 1
- BPRS Unusual Thought Content improvement ([2]; Day 1): 0
- BPRS Unusual Thought Content score ([2]; Day 1): 1
- BPRS Excitement improvement ([2]; Day 1): 1
- BPRS Excitement score ([2]; Day 1): 1
- BPRS Emotional withdrawal improvement ([2]; Day 1): 4
- BPRS Emotional withdrawal score ([2]; Day 1): 1
- BPRS Depressive Mood improvement ([2]; Day 1, baseline 6): 5
- BPRS Depressive Mood score ([2]; Day 1, baseline 6): 1
- BPRS Guilt feelings improvement ([2]; Day 1, baseline 6): 5
- BPRS Guilt feelings score ([2]; Day 1, baseline 6): 1
- BPRS Somatic Concern improvement ([2]; Day 1, baseline 6): 5
- BPRS Somatic Concern score ([2]; Day 1, baseline 6): 1
- BPRS Tension score ([2]; Day 1, baseline 6): 1
- BPRS Anxiety improvement ([2]; Day 1): 6
- BPRS Anxiety score ([2]; Day 1): 1
- BPRS Blunted affect improvement ([2]; Day 7): 0
- BPRS Blunted affect score ([2]; Day 7): 1
- BPRS Conceptual disorganization improvement ([2]; Day 7): 0
- BPRS Conceptual disorganization score ([2]; Day 7): 1
- BPRS Disorientation improvement ([2]; Day 7): 0
- BPRS Disorientation score ([2]; Day 7): 1
- BPRS Grandiosity improvement ([2]; Day 7): 0
- BPRS Grandiosity score ([2]; Day 7): 1
- BPRS Hallucinatory behaviour improvement ([2]; Day 7): 0
- BPRS Hallucinatory behaviour score ([2]; Day 7): 1
- BPRS Hostility improvement ([2]; Day 7): 0
- BPRS Hostility score ([2]; Day 7): 1
- BPRS Mannerisms and Posturing improvement ([2]; Day 7): 0
- BPRS Mannerisms and Posturing score ([2]; Day 7): 1
- BPRS Motor retardation improvement ([2]; Day 7): 0
- BPRS Motor retardation score ([2]; Day 7): 1
- BPRS Suspiciousness improvement ([2]; Day 7): 0
- BPRS Suspiciousness score ([2]; Day 7): 1
- BPRS Uncooperativeness improvement ([2]; Day 7): 0
- BPRS Uncooperativeness score ([2]; Day 7): 1
- BPRS Unusual Thought Content improvement ([2]; Day 7): 0
- BPRS Unusual Thought Content score ([2]; Day 7): 1
- BPRS Excitement improvement ([2]; Day 7): 1
- BPRS Excitement score ([2]; Day 7): 1
- BPRS Emotional withdrawal improvement ([2]; Day 7): 4
- BPRS Emotional withdrawal score ([2]; Day 7): 1
- BPRS Depressive Mood improvement ([2]; Day 7, baseline 6): 5
- BPRS Depressive Mood score ([2]; Day 7, baseline 6): 1
- BPRS Guilt feelings improvement ([2]; Day 7, baseline 6): 5
- BPRS Guilt feelings score ([2]; Day 7, baseline 6): 1
- BPRS Somatic Concern improvement ([2]; Day 7, baseline 6): 5
- BPRS Somatic Concern score ([2]; Day 7, baseline 6): 1
- BPRS Tension improvement ([2]; Day 7, baseline 6): 5
- BPRS Tension score ([2]; Day 7, baseline 6): 1
- BPRS Anxiety improvement ([2]; Day 7): 6
- BPRS Anxiety score ([2]; Day 7): 1
- BPRS Blunted affect improvement ([2]; Discharge): 0
- BPRS Blunted affect score ([2]; Discharge): 1
- BPRS Conceptual disorganization improvement ([2]; Discharge): 0
- BPRS Conceptual disorganization score ([2]; Discharge): 1
- BPRS Disorientation improvement ([2]; Discharge): 0
- BPRS Disorientation score ([2]; Discharge): 1
- BPRS Grandiosity improvement ([2]; Discharge): 0
- BPRS Grandiosity score ([2]; Discharge): 1
- BPRS Hallucinatory behaviour improvement ([2]; Discharge): 0
- BPRS Hallucinatory behaviour score ([2]; Discharge): 1
- BPRS Hostility improvement ([2]; Discharge): 0
- BPRS Hostility score ([2]; Discharge): 1
- BPRS Mannerisms and Posturing improvement ([2]; Discharge): 0
- BPRS Mannerisms and Posturing score ([2]; Discharge): 1
- BPRS Motor retardation improvement ([2]; Discharge): 0
- BPRS Motor retardation score ([2]; Discharge): 1
- BPRS Suspiciousness improvement ([2]; Discharge): 0
- BPRS Suspiciousness score ([2]; Discharge): 1
- BPRS Uncooperativeness improvement ([2]; Discharge): 0
- BPRS Uncooperativeness score ([2]; Discharge): 1
- BPRS Unusual Thought Content improvement ([2]; Discharge): 0
- BPRS Unusual Thought Content score ([2]; Discharge): 1
- BPRS Excitement improvement ([2]; Discharge): 1
- BPRS Excitement score ([2]; Discharge): 1
- BPRS Emotional withdrawal improvement ([2]; Discharge): 4
- BPRS Emotional withdrawal score ([2]; Discharge): 1
- BPRS Depressive Mood improvement ([2]; Discharge, baseline 6): 5
- BPRS Depressive Mood score ([2]; Discharge, baseline 6): 1
- BPRS Guilt feelings improvement ([2]; Discharge, baseline 6): 5
- BPRS Guilt feelings score ([2]; Discharge, baseline 6): 1
- BPRS Somatic Concern improvement ([2]; Discharge, baseline 6): 5
- BPRS Somatic Concern score ([2]; Discharge, baseline 6): 1
- BPRS Tension score ([2]; Discharge, baseline 6): 1
- BPRS Anxiety improvement ([2]; Discharge): 6
- BPRS Anxiety score ([2]; Discharge): 1
